Experimental data as given in US20260226069A1, “GCN2 AND PERK KINASE MODULATORS AND METHODS OF USE THEREOF” (Deciphera Pharmaceuticals, LLC, priority 2023, published 2026).

Columns and labels:
[1] = system: ATF4 in Thapsigargin stimulated CCRF-CEM cells; assay: CCRF-CEM TG ATF4 ELISA, phenotypic assay for cellular inhibition of PERK preactivated by thapsigargin; format: cell-based; settings: Homo sapiens, 3 h, compound three hours then 1 μM thapsigargin for an additional hour
Experimental: CCRF-CEM TG ATF4 ELISA, a Phenotypic Assay for Cellular Inhibition of PERK Preactivated by Thapsigargin (TG)
CCRF-CEM leukemia cells (catalog #CCL-116) were obtained from the American Type Culture Collection (ATTC, Manassas, VA). Briefly, cells were grown in RPMI-1640 medium supplemented with 10% heat-inactivated fetal bovine serum (Invitrogen, Carlsbad, CA) and 1% Penicillin/Streptomycin/L-Glutamine at 37° C., 5% CO2, and 95% humidity. Cells were expanded until reaching one million cells per mL at which time they were subcultured or harvested for assay use. One million five hundred thousand cells per well in 1 mL complete growth medium were dispensed into 12-well plates and incubated overnight. A serial dilution of test compound was added and cells were incubated at 37° C., 5% CO2, and 95% for three hours, then 1 μM thapsigargin was added and cells were incubated for an additional hour at 37° C., 5% CO2, and 95%. Cells were lysed then ATF4 levels were measured using an ELISA assay (Proteintech, Rosemont, IL). Absorbance was measured at 450 nm and 544 nM using a Synergy2 or equivalent reader (Biotek, Winooski VT). Data was analyzed using PRISM software (Graphpad, San Diego, CA) to calculate IC50 values.

[2] = system: ASNase treated CCRF-CEM cells; assay: CCRF-CEM ASNase cell proliferation assay, phenotypic assay for cellular inhibition of GCN2; format: cell-based; settings: Homo sapiens, 1 mU/mL ASNase, 72 h, resazurin
Experimental: CCRF-CEM ASNase Cell Proliferation Assay, a Phenotypic Assay for Cellular Inhibition of GCN2.
CCRF-CEM leukemia cells (catalog #CCL-116) were obtained from the American Type Culture Collect (ATTC, Manassas, VA). Cells were grown in RPMI-1640 medium supplemented with 10% heat-inactivated fetal bovine serum (Invitrogen, Carlsbad, CA) and 1% Penicillin/Streptomycin/L-Glutamine at 37° C., 5% CO2, and 95% humidity. Cells were expanded until reaching one million cells per mL at which time they are subcultured or harvested for assay use. Ten thousand cells per well in 200 μL RPMI-1640 supplemented with 10% heat-inactivated fetal bovine serum and 1% Penicillin/Streptomycin were dispensed into a 96-well black clear bottom plate. A serial dilution of test compound and 1 mU/mL ASNase was added in triplicate and plates were incubated for 72 h at 37° C., 5% CO2, and 95% humidity. At the end of the incubation, 40 μL of a […] solution of resazurin (Sigma, St. Louis, MO) in PBS was added to each well of the plate and plates were incubated for an additional 6 h at 37° C., 5% CO2, and 95% humidity. Plates were read on a Synergy2 or equivalent reader (Biotek, Winooski VT) using an excitation of 540 nm and an emission of 600 nm. Data was analyzed using GraphPad Prism software (GraphPad, San Diego, CA) to calculate IC50 values.

GCN2 kinase = molecular target: T1, GCN2 kinase (Homo sapiens, UniProt Q9P2K8); assay: Biochemical assay for GCN2 (TR-FRET kinase activity assay); settings: 2 nM GCN2, 1 mM ATP, 3-hour incubation
T1 construct: G556E with a; purchased Carna Biosciences
Experimental: Biochemical assay for GCN2
Activity of GCN2 kinase was determined using a TR-FRET kinase activity assay (e.g., Analytical Biochemistry, 2006, 356, 108-116). Assays were conducted in 384-well plates (13 μL assay volume) using 2 nM GCN2 (Carna Biosciences), 130 nM GFP-EIf2α (Invitrogen), 0.2 mg/mL E. coli tRNA (sigma) and 1 mM ATP in kinase buffer (Invitrogen). Inhibition of GCN2 was measured by adding serial diluted test compound (final assay concentration of 0.5% DMSO) followed by a 3-hour incubation. Tb-peIF2α (pSer52) antibody (Invitrogen) (2 nM final assay concentration) in kinase buffer containing EDTA (final assay concentration of 20 mM) was added. After a 60 min incubation at room temperature, TR-FRET was monitored using an excitation wavelength of 340 nm and emission wavelengths of 490 nm and 520 nm. The emission ratio (520/490) at each compound concentration of was converted to percent inhibition using controls (i.e., reaction with no test compound and reaction with a known inhibitor) and IC50 values were calculated by fitting a four-parameter sigmoidal curve to the data using Prism (GraphPad software).

PERK kinase = molecular target: T2, PERK kinase (Homo sapiens, UniProt Q9NZJ5, A704S); assay: Biochemical assay for PERK (coupled pyruvate kinase/lactate dehydrogenase assay); settings: 10 nM PERK, 1 mM ATP, reaction rate 2-3 h time frame, 30° C.
T2 construct: GST (with thrombin site LVPRGS); purchased Beryllium
Experimental: Biochemical Assay for PERK
Activity of PERK kinase was determined spectroscopically using a coupled pyruvate kinase/lactate dehydrogenase assay that continuously monitors the ATP hydrolysis-dependent oxidation of NADH (Science, 2000, 289, 1938-1942). Assays were conducted in 384-well plates (100 μL final volume) using 10 nM PERK (from Beryllium), 0.25 mg/mL Myelin Basic Protein substrate, 1.5 units pyruvate kinase, 2.1 units lactate dehydrogenase, 1 mM phosphoenol pyruvate, 0.28 mM NADH and 1 mM ATP in assay buffer (100 mM Tris, pH 7.5, 15 mM MgCl2, 0.5 mM DTT, 0.004% (w/v) BSA, and 0.004% Triton X-100). Inhibition of PERK was measured by adding serial diluted test compound (final assay concentration of 1% DMSO). A decrease in absorption at 340 nm was monitored continuously for 6 hours at 30° C. on a multi-mode microplate reader (BioTek). The reaction rate was calculated using the 2-3 h time frame. The reaction rate at each concentration of compound was converted to percent inhibition using controls (i.e., reaction with no test compound and reaction with a known inhibitor) and IC50 values were calculated using software routines in Prism (GraphPad software).

T2 sequence (Q9NZJ5 with tags, fused parts or gaps A704S): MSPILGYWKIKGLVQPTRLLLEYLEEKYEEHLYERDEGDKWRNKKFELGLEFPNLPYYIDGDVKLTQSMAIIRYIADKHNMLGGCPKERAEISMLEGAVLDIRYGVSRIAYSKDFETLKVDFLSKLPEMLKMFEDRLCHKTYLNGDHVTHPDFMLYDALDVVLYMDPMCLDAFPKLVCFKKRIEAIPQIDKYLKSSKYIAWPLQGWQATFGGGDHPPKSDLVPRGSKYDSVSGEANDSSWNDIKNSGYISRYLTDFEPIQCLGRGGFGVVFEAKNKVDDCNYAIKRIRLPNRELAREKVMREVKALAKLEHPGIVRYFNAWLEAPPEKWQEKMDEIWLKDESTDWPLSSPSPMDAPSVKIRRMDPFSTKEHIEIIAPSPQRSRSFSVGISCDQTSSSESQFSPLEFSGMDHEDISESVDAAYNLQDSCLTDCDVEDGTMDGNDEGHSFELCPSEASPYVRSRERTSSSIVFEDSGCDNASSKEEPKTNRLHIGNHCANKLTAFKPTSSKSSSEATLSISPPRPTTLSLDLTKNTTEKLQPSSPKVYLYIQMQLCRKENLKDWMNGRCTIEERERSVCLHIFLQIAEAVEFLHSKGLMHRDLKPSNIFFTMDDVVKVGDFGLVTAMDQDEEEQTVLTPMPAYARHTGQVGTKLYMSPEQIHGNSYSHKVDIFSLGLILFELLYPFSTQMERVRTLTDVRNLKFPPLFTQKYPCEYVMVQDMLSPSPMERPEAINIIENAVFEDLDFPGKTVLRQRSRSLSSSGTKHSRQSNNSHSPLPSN

Row | Compound | IC50 [1] [µM] | IC50 [2] [µM] | IC50 (GCN2 kinase) [µM] | IC50 (PERK kinase) [µM]
1 | CCC(C)(C)C(=O)OCc1cc(Cl)cc(S(=O)(=O)Nc2cccc(-c3nc(C)n4ccnc(N)c34)c2F)c1Cl [Example 29] | 1 to 10 | 1 to 10 | 1 to 10 | 1 to 10
2 | CCC(=O)OCc1cc(Cl)cc(S(=O)(=O)Nc2cccc(-c3nc(C)n4ccnc(N)c34)c2F)c1Cl [Example 32] | 1 to 10 | 1 to 10 | – | 0.5 to 1
3 | Cc1nc(-c2cccc(NS(=O)(=O)c3cc(Cl)cc(COC(=O)C4CC4)c3Cl)c2F)c2c(N)nccn12 [Example 31] | 1 to 10 | 1 to 10 | 1 to 10 | 1 to 10
4 | COCCNc1nc(-c2cccc(NS(=O)(=O)c3cc(Cl)cc(CO)c3Cl)c2F)c2c(N)nccn12 [Example 23] | 0.1 to 0.5 | 0.1 to 0.5 | 0.1 to 0.5 | ≤ 0.1
5 | COc1ncc(Cl)cc1S(=O)(=O)Nc1cc(F)c(F)c(-c2nc(C)n3ccnc(N)c23)c1 [Example 28] | 1 to 10 | 1 to 10 | 1 to 10 | 0.5 to 1
6 | COCc1cc(Cl)cc(S(=O)(=O)Nc2cccc(-c3nc(C)n4ccnc(N)c34)c2F)c1Cl [Example 48, N-(3-(8-amino-3-methylimidazo[1,5-a]pyrazin-1-yl)-2-fluorophenyl)-2,5-dichloro-3-(methoxymethyl)benzenesulfonamide] | 1 to 10 | 1 to 10 | 0.5 to 1 | ≤ 0.1
7 | Cc1c(CO)cc(F)cc1S(=O)(=O)Nc1cccc(-c2nc(C)n3ccnc(N)c23)c1F [Example 6] | 1 to 10 | 1 to 10 | 1 to 10 | ≤ 0.1
8 | Cn1cc(-c2cccc(NS(=O)(=O)c3ccc(Br)c(C(F)(F)F)c3)c2F)c2c(N)ncnc21 [Example 36] | 1 to 10 | 1 to 10 | 1 to 10 | 0.1 to 0.5
9 | COc1ccc(S(=O)(=O)Nc2cccc(-c3cn(C)c4ncnc(N)c34)c2F)cc1Cl [Example 44] | 0.5 to 1 | 1 to 10 | 1 to 10 | ≤ 0.1
10 | COc1c(CO)cc(Cl)cc1S(=O)(=O)Nc1cccc(-c2nc(C)n3ccnc(N)c23)c1F [Example 11] | 0.5 to 1 | 1 to 10 | 1 to 10 | 0.1 to 0.5
11 | COC(=O)c1cccc(S(=O)(=O)Nc2cccc(-c3cn(C)c4ncnc(N)c34)c2F)c1Cl [Example 39] | 1 to 10 | 1 to 10 | 1 to 10 | 0.1 to 0.5
12 | CC(=O)OCc1cc(Cl)cc(S(=O)(=O)Nc2cccc(-c3nc(C(C)(C)C)n4ccnc(N)c34)c2F)c1Cl [Example 30] | 1 to 10 | 1 to 10 | 1 to 10 | 0.1 to 0.5
13 | CCCC(=O)OCc1cc(Cl)cc(S(=O)(=O)Nc2cccc(-c3nc(C)n4ccnc(N)c34)c2F)c1Cl [Example 33] | 0.1 to 0.5 | 0.1 to 0.5 | 1 to 10 | 0.5 to 1
14 | Cc1nc(-c2cccc(NS(=O)(=O)c3cc(F)cc(CO)c3Cl)c2F)c2c(N)nccn12 [Example 8] | 0.1 to 0.5 | 0.5 to 1 | 0.5 to 1 | ≤ 0.1
15 | CCNc1nc(-c2cccc(NS(=O)(=O)c3cc(Cl)cc(CO)c3Cl)c2F)c2c(N)nccn12 [Example 27] | 0.1 to 0.5 | 0.1 to 0.5 | ≤ 0.1 | ≤ 0.1
16 | Cc1nc(-c2cccc(NS(=O)(=O)c3cc(Cl)cc(CO)c3F)c2F)c2c(N)nccn12 [Example 7] | 1 to 10 | 1 to 10 | 0.5 to 1 | ≤ 0.1
17 | Cc1nc(-c2cccc(NS(=O)(=O)c3cc(F)cc(CO)c3F)c2F)c2c(N)nccn12 [Example 15] | 1 to 10 | 1 to 10 | 1 to 10 | 0.1 to 0.5

Further lines, results first:

Row | IC50 [1] [µM] | IC50 [2] [µM] | IC50 (GCN2 kinase) [µM] | IC50 (PERK kinase) [µM] | Compound
18 | 1 to 10 | 1 to 10 | 1 to 10 | 0.1 to 0.5 | Cn1cc(-c2cccc(NS(=O)(=O)c3ccc(F)c(CO)c3Cl)c2F)c2c(N)ncnc21 [Example 24]
19 | 0.1 to 0.5 | 0.5 to 1 | 0.1 to 0.5 | ≤ 0.1 | COc1cc(F)c(S(=O)(=O)Nc2cccc(-c3cn(C)c4ncnc(N)c34)c2F)cc1Cl [Example 37]
20 | 1 to 10 | 1 to 10 | 0.1 to 0.5 | ≤ 0.1 | Cn1cc(-c2cccc(NS(=O)(=O)c3cc(Cl)cc(Br)c3Cl)c2F)c2c(N)ncnc21 [Example 42]
21 | 1 to 10 | 1 to 10 | 1 to 10 | 0.5 to 1 | CNCc1cc(Cl)cc(S(=O)(=O)Nc2cccc(-c3cn(C)c4ncnc(N)c34)c2F)c1Cl [Example 50]
22 | 1 to 10 | 1 to 10 | 1 to 10 | 0.1 to 0.5 | Cn1cc(-c2cccc(NS(=O)(=O)c3cc(CO)c(F)cc3F)c2F)c2c(N)ncnc21 [Example 10]
23 | 0.1 to 0.5 | 1 to 10 | 1 to 10 | ≤ 0.1 | COc1ncc(Cl)cc1S(=O)(=O)Nc1cccc(-c2cn(C)c3ncnc(N)c23)c1F [Example 45, N-(3-(4-amino-7-methyl-7H-pyrrolo[2,3-d]pyrimidin-5-yl)-2-fluorophenyl)-5-chloro-2-methoxypyridine-3-sulfonamide]
24 | 1 to 10 | 1 to 10 | 1 to 10 | 0.5 to 1 | Cn1cc(-c2cccc(NS(=O)(=O)c3ccc(Cl)c(CO)c3F)c2F)c2c(N)ncnc21 [Example 5]
25 | 1 to 10 | 1 to 10 | 1 to 10 | ≤ 0.1 | COC(=O)c1cc(Cl)cc(S(=O)(=O)Nc2cccc(-c3cn(C)c4ncnc(N)c34)c2F)c1Cl [Example 40]
26 | 0.5 to 1 | 1 to 10 | 1 to 10 | 0.1 to 0.5 | Cn1cc(-c2cccc(NS(=O)(=O)c3cc(Cl)cc(CN)c3Cl)c2F)c2c(N)ncnc21 [Example 49]
27 | 0.1 to 0.5 | 1 to 10 | 1 to 10 | ≤ 0.1 | COc1cc(Cl)c(S(=O)(=O)Nc2cccc(-c3cn(C)c4ncnc(N)c34)c2F)cc1Cl [Example 41]
28 | 1 to 10 | 1 to 10 | 1 to 10 | ≤ 0.1 | CO/N=C\c1cc(Cl)cc(S(=O)(=O)Nc2cccc(-c3cn(C)c4ncnc(N)c34)c2F)c1Cl [Example 53]
